Laboratory results reported in ChEMBL document CHEMBL1201862, “PubChem BioAssay data set” (2004).
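Following 48 hours of exposure in 96-well plates, responses at five concentrations were used to interpolate endpoints linearly. At the GI50, growth is halved.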 Calls of active or inactive are those of the source. Rule as the data show it: active = GI50 up to about 1.1 µM and inactive = higher.

Assays:
Test in all cases: inhibition of tumour cell growth, NCI panel, 48 h
NCI/ADR-RES = system: NCI/ADR-RES
DU-145 = system: DU-145
HCT-116 = system: HCT-116
CAKI-1 = system: CAKI-1
MCF7 = system: MCF7
M14 = system: M14
RXF 393 = system: RXF 393
Hs-578T = system: Hs-578T
SK-MEL-2 = system: SK-MEL-2
HCT-15 = system: HCT-15
T47D = system: T47D
OVCAR-5 = system: OVCAR-5
OVCAR-4 = system: OVCAR-4
IGROV-1 = system: IGROV-1
EKVX = system: EKVX
PC-3 = system: PC-3
OVCAR-8 = system: OVCAR-8
BT-549 = system: BT-549
NCI-H522 = system: NCI-H522
U-251 = system: U-251
SK-OV-3 = system: SK-OV-3
HOP-62 = system: HOP-62
CCRF-CEM = system: CCRF-CEM
LOX IMVI = system: LOX IMVI
MDA-MB-435 = system: MDA-MB-435
HOP-92 = system: HOP-92
SK-MEL-28 = system: SK-MEL-28
SF-295 = system: SF-295
KM12 = system: KM12
UO-31 = system: UO-31
NCI-H226 = system: NCI-H226
SW-620 = system: SW-620
HL-60 = system: HL-60
SN12C = system: SN12C
A549 = system: A549
SNB-75 = system: SNB-75
COLO 205 = system: COLO 205
UACC-62 = system: UACC-62
HCC 2998 = system: HCC 2998
TK-10 = system: TK-10
NCI-H23 = system: NCI-H23
HT-29 = system: HT-29
SR = system: SR
A498 = system: A498
RPMI-8226 = system: RPMI-8226
MDA-MB-231 = system: MDA-MB-231
786-0 = system: 786-0
K562 = system: K562
SK-MEL-5 = system: SK-MEL-5
ACHN = system: ACHN
MDA-N = system: MDA-N
SF-268 = system: SF-268
NCI-H460 = system: NCI-H460
Malme-3M = system: Malme-3M
MOLT-4 = system: MOLT-4
UACC-257 = system: UACC-257
SNB-19 = system: SNB-19
OVCAR-3 = system: OVCAR-3
SF-539 = system: SF-539

In the case of `Cc1cc(C)c(C2=NOC(c3ccccc3)(c3cc(=O)n(-c4ccccc4)s3)O2)c(C)c1` (centres undefined), the GI50 (NCI/ADR-RES) is reported as 23.3 µM (inactive), the GI50 (DU-145) is reported as 32.1 µM (inactive) and the GI50 (HCT-116) is reported as > 100 µM (inactive). The GI50 (CAKI-1) was 17.2 µM (inactive), the GI50 (MCF7) was 18.6 µM (inactive) and the GI50 (M14) was 27 µM (inactive). For the same molecule, the GI50 (RXF 393) was 17.3 µM (inactive), the GI50 (Hs-578T) was 52.6 µM (inactive) and the GI50 (SK-MEL-2) was 28 µM (inactive). The GI50 (HCT-15) was 19.3 µM, the GI50 (T47D) was 17.3 µM (inactive) and the GI50 (OVCAR-5) was 18 µM (inactive). For the same molecule, the GI50 (OVCAR-4) was 53.1 µM (inactive), the GI50 (IGROV-1) was 37.1 µM (inactive) and the GI50 (EKVX) was 21.9 µM (inactive). For the same molecule, the GI50 (PC-3) was 30.9 µM (inactive), the GI50 (OVCAR-8) was 18.7 µM (inactive) and the GI50 (BT-549) was 24.8 µM (inactive). The GI50 (NCI-H522) was 17.5 µM (inactive), the GI50 (U-251) was 24.7 µM (inactive) and the GI50 (SK-OV-3) was > 100 µM (inactive). The GI50 (HOP-62) was 33.2 µM (inactive), the GI50 (CCRF-CEM) was 23.8 µM (inactive) and the GI50 (LOX IMVI) was 15.8 µM (inactive). For the same molecule, the GI50 (MDA-MB-435) was 48.3 µM (inactive), the GI50 (HOP-92) was 23.2 µM (inactive) and the GI50 (SK-MEL-28) was 32 µM (inactive). For the same molecule, the GI50 (SF-295) was > 100 µM (inactive), the GI50 (KM12) was 37 µM (inactive) and the GI50 (UO-31) was 20.8 µM (inactive). For the same molecule, the GI50 (NCI-H226) was 31.5 µM (inactive), the GI50 (SW-620) was 26.4 µM (inactive) and the GI50 (HL-60) was 22.1 µM (inactive). The GI50 (SN12C) was 33 µM (inactive), the GI50 (A549) was 29.5 µM (inactive) and the GI50 (SNB-75) was 26.5 µM (inactive). The GI50 (COLO 205) was 23.6 µM (inactive), the GI50 (UACC-62) was 23.2 µM (inactive) and the GI50 (HCC 2998) was 32.5 µM (inactive). The GI50 (TK-10) was 25.1 µM (inactive), the GI50 (NCI-H23) was 20.6 µM (inactive) and the GI50 (HT-29) was 18.8 µM (inactive). The GI50 (SR) was 89.7 µM (inactive), the GI50 (A498) was > 100 µM (inactive) and the GI50 (RPMI-8226) was 37 µM (inactive). For the same molecule, the GI50 (MDA-MB-231) was 30.8 µM (inactive), the GI50 (786-0) was 19 µM (inactive) and the GI50 (K562) was > 100 µM (inactive). For the same molecule, the GI50 (SK-MEL-5) was 74 µM (inactive), the GI50 (ACHN) was 24.2 µM (inactive) and the GI50 (MDA-N) was 38.8 µM (inactive). The GI50 (SF-268) was 44.2 µM (inactive), the GI50 (NCI-H460) was 43.1 µM (inactive) and the GI50 (Malme-3M) was 18.8 µM (inactive). The GI50 (MOLT-4) was 41.9 µM (inactive), the GI50 (UACC-257) was 38.9 µM (inactive) and the GI50 (SNB-19) was 50.6 µM (inactive).
With `CCOC(=O)C1(C(C)=O)OC(=O)c2cnccc21` (centres undefined) the GI50 (OVCAR-3) was > 100 µM (inactive), the GI50 (NCI/ADR-RES) was > 100 µM (inactive) and the GI50 (DU-145) was > 100 µM (inactive). The GI50 (HCT-116) was > 100 µM (inactive), the GI50 (CAKI-1) was > 100 µM (inactive) and the GI50 (MCF7) was > 100 µM (inactive). For the same molecule, the GI50 (M14) was > 100 µM (inactive), the GI50 (RXF 393) was > 100 µM (inactive) and the GI50 (Hs-578T) was > 100 µM (inactive). The GI50 (SK-MEL-2) was > 100 µM (inactive), the GI50 (HCT-15) was greater than 100 µM and the GI50 (T47D) was > 100 µM (inactive). For the same molecule, the GI50 (OVCAR-5) was > 100 µM (inactive), the GI50 (IGROV-1) was > 100 µM (inactive) and the GI50 (EKVX) was > 100 µM (inactive). The GI50 (PC-3) was > 100 µM (inactive), the GI50 (OVCAR-8) was > 100 µM (inactive) and the GI50 (BT-549) was > 100 µM (inactive). For the same molecule, the GI50 (NCI-H522) was > 100 µM (inactive), the GI50 (U-251) was > 100 µM (inactive) and the GI50 (SK-OV-3) was > 100 µM (inactive). The GI50 (CCRF-CEM) was > 100 µM (inactive), the GI50 (LOX IMVI) was > 100 µM (inactive) and the GI50 (MDA-MB-435) was > 100 µM (inactive). The GI50 (HOP-92) was > 100 µM (inactive), the GI50 (SK-MEL-28) was > 100 µM (inactive) and the GI50 (SF-295) was > 100 µM (inactive). The GI50 (KM12) was > 100 µM (inactive), the GI50 (UO-31) was > 100 µM (inactive) and the GI50 (NCI-H226) was > 100 µM (inactive). For the same molecule, the GI50 (SW-620) was > 100 µM (inactive), the GI50 (HL-60) was > 100 µM (inactive) and the GI50 (SN12C) was > 100 µM (inactive). The GI50 (A549) was > 100 µM (inactive), the GI50 (SNB-75) was > 100 µM (inactive) and the GI50 (SF-539) was > 100 µM (inactive). The GI50 (COLO 205) was > 100 µM (inactive), the GI50 (UACC-62) was > 100 µM (inactive) and the GI50 (HCC 2998) was > 100 µM (inactive). For the same molecule, the GI50 (NCI-H23) was > 100 µM (inactive), the GI50 (HT-29) was > 100 µM (inactive) and the GI50 (SR) was > 100 µM (inactive). For the same molecule, the GI50 (A498) was > 100 µM (inactive), the GI50 (RPMI-8226) was > 100 µM (inactive) and the GI50 (MDA-MB-231) was > 100 µM (inactive). For the same molecule, the GI50 (786-0) was > 100 µM (inactive), the GI50 (K562) was > 100 µM (inactive) and the GI50 (SK-MEL-5) was > 100 µM (inactive). For the same molecule, the GI50 (ACHN) was > 100 µM (inactive), the GI50 (MDA-N) was > 100 µM (inactive) and the GI50 (SF-268) was > 100 µM (inactive). The GI50 (NCI-H460) was > 100 µM (inactive), the GI50 (Malme-3M) was > 100 µM (inactive) and the GI50 (MOLT-4) was > 100 µM (inactive). For the same molecule, the GI50 (UACC-257) was > 100 µM (inactive) and the GI50 (SNB-19) was > 100 µM (inactive).
In the case of `CN(C)C(Cc1c[nH]cn1)C(=O)N1CCCC1C(N)=O` (centres undefined), the GI50 (OVCAR-3) is reported as > 100 µM (inactive), the GI50 (NCI/ADR-RES) is reported as > 100 µM (inactive) and the GI50 (DU-145) is reported as > 100 µM (inactive). For the same molecule, the GI50 (HCT-116) was > 100 µM (inactive), the GI50 (CAKI-1) was > 100 µM (inactive) and the GI50 (MCF7) was > 100 µM (inactive). The GI50 (M14) was > 100 µM (inactive), the GI50 (RXF 393) was > 100 µM (inactive) and the GI50 (Hs-578T) was > 100 µM (inactive). The GI50 (HCT-15) was greater than 100 µM, the GI50 (T47D) was > 100 µM (inactive) and the GI50 (OVCAR-5) was > 100 µM (inactive). For the same molecule, the GI50 (OVCAR-4) was > 100 µM (inactive), the GI50 (IGROV-1) was > 100 µM (inactive) and the GI50 (EKVX) was > 100 µM (inactive). The GI50 (PC-3) was > 100 µM (inactive), the GI50 (OVCAR-8) was > 100 µM (inactive) and the GI50 (BT-549) was > 100 µM (inactive). The GI50 (NCI-H522) was > 100 µM (inactive), the GI50 (U-251) was > 100 µM (inactive) and the GI50 (SK-OV-3) was > 100 µM (inactive). For the same molecule, the GI50 (HOP-62) was > 100 µM (inactive), the GI50 (CCRF-CEM) was > 100 µM (inactive) and the GI50 (LOX IMVI) was > 100 µM (inactive). The GI50 (MDA-MB-435) was > 100 µM (inactive), the GI50 (HOP-92) was > 100 µM (inactive) and the GI50 (SK-MEL-28) was > 100 µM (inactive). For the same molecule, the GI50 (SF-295) was > 100 µM (inactive), the GI50 (KM12) was > 100 µM (inactive) and the GI50 (UO-31) was > 100 µM (inactive). For the same molecule, the GI50 (NCI-H226) was > 100 µM (inactive), the GI50 (SW-620) was > 100 µM (inactive) and the GI50 (HL-60) was > 100 µM (inactive). For the same molecule, the GI50 (SN12C) was > 100 µM (inactive), the GI50 (A549) was > 100 µM (inactive) and the GI50 (SNB-75) was > 100 µM (inactive). For the same molecule, the GI50 (COLO 205) was > 100 µM (inactive), the GI50 (UACC-62) was > 100 µM (inactive) and the GI50 (HCC 2998) was > 100 µM (inactive). The GI50 (TK-10) was > 100 µM (inactive), the GI50 (NCI-H23) was > 100 µM (inactive) and the GI50 (HT-29) was > 100 µM (inactive). The GI50 (SR) was > 100 µM (inactive), the GI50 (A498) was 22.9 µM (inactive) and the GI50 (RPMI-8226) was > 100 µM (inactive). The GI50 (MDA-MB-231) was > 100 µM (inactive), the GI50 (786-0) was > 100 µM (inactive) and the GI50 (K562) was > 100 µM (inactive). For the same molecule, the GI50 (SK-MEL-5) was > 100 µM (inactive), the GI50 (ACHN) was > 100 µM (inactive) and the GI50 (MDA-N) was > 100 µM (inactive). The GI50 (SF-268) was > 100 µM (inactive), the GI50 (NCI-H460) was > 100 µM (inactive) and the GI50 (Malme-3M) was > 100 µM (inactive). For the same molecule, the GI50 (MOLT-4) was > 100 µM (inactive) and the GI50 (SNB-19) was > 100 µM (inactive).
